Test results from ChEMBL document CHEMBL1926529, “Synthesis of novel benzofurocoumarin analogues and their anti-proliferative effect on human cancer cell lines” (2012).
Calls of active or inactive are those of the source. The rule behind the calls is not given here.

Experiments:
MDA-MB-231 [1] = assay: Growth inhibition of human MDA-MB-231 cells assessed as cell viability after 48 hrs by MTS assay; type: functional; settings: MDA-MB-231, 48 h
HeLa [2] = assay: Growth inhibition of human HeLa cells assessed as cell viability after 48 hrs by MTS assay; type: functional
TCC-SUP [3] = assay: Growth inhibition of human TCCSUP cells assessed as cell viability after 48 hrs by MTS assay; type: functional
MDA-MB-231 [4] = assay: Growth inhibition of human MDA-MB-231 cells assessed as cell viability at 0.5 uM after 48 hrs by MTS assay; type: functional, cell-based
HeLa [5] = assay: Growth inhibition of human HeLa cells assessed as cell viability at 0.5 uM after 48 hrs by MTS assay; type: functional, cell-based
TCC-SUP [6] = assay: Growth inhibition of human TCCSUP cells assessed as cell viability at 0.5 uM after 48 hrs by MTS assay; type: functional, cell-based

Row | Structure (SMILES) | GI50 (MDA-MB-231 [1]) | GI50 (HeLa [2]) | GI50 (TCC-SUP [3]) | growth inhibition (GI) (MDA-MB-231 [4]) | growth inhibition (GI) (HeLa [5]) | growth inhibition (GI) (TCC-SUP [6])
1 | CCOC(=O)c1cc2c(ccc3oc4ccccc4c32)oc1=O | 0.083 µM | 0.002 µM | 0.012 µM | Active | Active | Active
2 | O=c1ccc2c(ccc3oc4ccccc4c32)o1 | 0.467 µM | 0.005 µM | 0.031 µM | Active | Active | Active
3 | COC(=O)C(C)NC(=O)c1cc2c(ccc3oc4ccccc4c32)oc1=O (stereo not given) | 0.106 µM | 0.053 µM | 0.159 µM | Active | Active | Active
4 | O=C(O)c1cc2c(ccc3oc4ccccc4c32)oc1=O | 0.097 µM | 0.003 µM | 0.05 µM | Active | Active | Active
5 | CCOC(=O)C(CC(C)C)NC(=O)c1cc2c(ccc3oc4ccccc4c32)oc1=O (stereo not given) | 0.205 µM | 0.043 µM | 0.122 µM | Active | Active | Active
